Experimental data reported in patent US11873295B2, “Allosteric chromenone inhibitors of phosphoinositide 3-kinase (PI3K) for the treatment of disease” (Petra Pharma Corporation, priority 2021, dated 2024).

What was measured:
[1] = molecular target: T1, human full length PIK3KA H1047R mutant (p110α/p85α complex) (Homo sapiens, UniProt P42336, H1047R); assay: PI3K-alpha kinase (PIK3CA) biochemical activity, H1047R mutant, ADP-Glo; details: PI3K-α (PIK3CA) biochemical, H1047R mutant, Soy PI lipid substrate
T1 construct: Recombinant, catalytically active human full length PIK3KA Wild-type and H1047R mutant were purchased as 1:1 complex; 6xHis (N); purchased EMD Millipore Sigma 14-792M
T1 sequence (P42336 whole entry H1047R): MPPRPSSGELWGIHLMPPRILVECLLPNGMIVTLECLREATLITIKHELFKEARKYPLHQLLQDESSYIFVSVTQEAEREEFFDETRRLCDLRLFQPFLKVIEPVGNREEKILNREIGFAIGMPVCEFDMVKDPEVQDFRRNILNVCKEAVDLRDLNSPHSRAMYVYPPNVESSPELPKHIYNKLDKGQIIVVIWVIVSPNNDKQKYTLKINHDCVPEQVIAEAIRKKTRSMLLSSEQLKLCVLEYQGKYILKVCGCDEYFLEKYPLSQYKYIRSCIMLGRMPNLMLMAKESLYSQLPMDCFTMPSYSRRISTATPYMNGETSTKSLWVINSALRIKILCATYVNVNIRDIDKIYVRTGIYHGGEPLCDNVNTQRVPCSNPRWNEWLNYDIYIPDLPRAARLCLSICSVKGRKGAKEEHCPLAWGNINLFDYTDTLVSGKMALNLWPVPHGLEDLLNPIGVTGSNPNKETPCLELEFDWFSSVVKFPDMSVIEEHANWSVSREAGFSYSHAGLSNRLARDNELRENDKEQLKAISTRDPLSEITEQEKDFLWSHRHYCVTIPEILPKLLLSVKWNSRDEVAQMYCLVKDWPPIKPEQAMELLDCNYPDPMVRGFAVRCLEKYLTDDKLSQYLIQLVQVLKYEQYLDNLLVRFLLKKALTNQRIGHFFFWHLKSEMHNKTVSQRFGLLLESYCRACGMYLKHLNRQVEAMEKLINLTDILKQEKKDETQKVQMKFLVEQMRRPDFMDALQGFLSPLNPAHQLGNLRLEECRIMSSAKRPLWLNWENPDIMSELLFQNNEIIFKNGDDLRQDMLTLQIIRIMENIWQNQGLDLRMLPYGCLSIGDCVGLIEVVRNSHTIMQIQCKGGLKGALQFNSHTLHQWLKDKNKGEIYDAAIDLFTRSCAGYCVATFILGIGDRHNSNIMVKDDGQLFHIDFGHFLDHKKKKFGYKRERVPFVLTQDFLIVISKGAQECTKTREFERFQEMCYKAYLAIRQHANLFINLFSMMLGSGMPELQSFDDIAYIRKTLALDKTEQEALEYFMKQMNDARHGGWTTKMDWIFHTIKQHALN
T1 sequence (P27986 whole entry partner): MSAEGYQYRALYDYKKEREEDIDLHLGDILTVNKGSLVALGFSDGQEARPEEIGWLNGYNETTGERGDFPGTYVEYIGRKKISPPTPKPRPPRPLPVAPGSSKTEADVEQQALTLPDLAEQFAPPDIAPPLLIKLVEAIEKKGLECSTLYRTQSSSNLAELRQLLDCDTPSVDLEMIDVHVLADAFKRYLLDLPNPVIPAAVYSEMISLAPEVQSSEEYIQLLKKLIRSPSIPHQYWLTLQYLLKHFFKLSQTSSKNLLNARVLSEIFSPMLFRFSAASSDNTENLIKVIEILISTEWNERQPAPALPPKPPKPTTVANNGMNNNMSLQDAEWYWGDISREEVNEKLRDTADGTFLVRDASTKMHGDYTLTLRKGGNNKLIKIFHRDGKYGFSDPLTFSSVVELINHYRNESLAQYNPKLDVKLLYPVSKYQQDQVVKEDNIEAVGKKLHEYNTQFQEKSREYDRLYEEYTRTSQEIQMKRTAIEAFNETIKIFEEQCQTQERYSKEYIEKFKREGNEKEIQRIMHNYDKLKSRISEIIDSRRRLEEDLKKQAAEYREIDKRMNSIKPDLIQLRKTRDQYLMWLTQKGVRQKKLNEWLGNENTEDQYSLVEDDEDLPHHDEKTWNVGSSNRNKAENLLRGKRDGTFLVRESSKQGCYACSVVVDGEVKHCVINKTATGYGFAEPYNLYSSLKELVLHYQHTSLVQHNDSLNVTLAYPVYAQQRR
Summary of the method: (§1)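 ADP formation, read by ADP-Glo, is run to about 10% ATP turnover at 27 °C with 20 μM ATP and 50 μM PIP2diC8 or soy PI. WT or H1047R p110α/p85α (1–5 nM) is pre-incubated 1 h with compound in HEPES pH 7.4/MgCl2/Triton buffer, 1% DMSO. 10-point 1:3 series, logistic IC50 versus no-enzyme and DMSO controls.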

[2] = tested on: PI3K-α (PIK3CA) in MDA-MB-453 cells; assay: PI3K-alpha kinase (PIK3CA) activity in vitro cell based assay, MDA-MB-453 cells, AlphaLisa SureFire; details: Homo sapiens, MDA-MB-453, 3 h, 0% FBS, 3 hours treatment, relative IC50
Experimental: PI3K-Alpha Kinase (PIK3CA) Activity In Vitro Cell Based Assay and Determining IC50 Values for Inhibitors
The MDA-MB-453 (ATCC-HTB-131) cell line was obtained from the American Type Culture Collection (Manassas, VA). Cells were maintained in Dulbecco's Modified Eagle Media (DMEM, Gibco 11965-092) supplemented with 10% Fetal Bovine Serum, heat inactivated (FBS HI, Gibco 10082-147), 1× non-essential amino acids (NEAA, Gibco 11140-050), and 1 mM sodium pyruvate (Gibco 11360-070). Cultures were maintained in a humidified incubator at 37° C. under 5% CO2/95% air.
For compound testing in 0% FBS, MDA-MB-453 cells were seeded at a density of 1.5×10^4 cells per well in white 384-well plates in 20 μl of Minimum Essential Media (MEM) assay media with 1×NEAA, 1 mM sodium pyruvate, and 1 μg/mL human insulin (Sigma I9278). Compounds dissolved in 10 mM stock solutions in DMSO were serially diluted 1:3 in DMSO to generate a 10-point dilution series and plated using an acoustic liquid handler system (Echo 550 Series Liquid Handler, Labcyte). A 5× intermediate compound dilution plate in MEM with 1×NEAA and 1 mM sodium pyruvate (150 μM starting compound concentration in 1.5% DMSO) was then prepared. Five μl of the intermediate serially diluted compounds were added to the cell plate to final concentrations ranging from […] in 0.3% DMSO. 0.3% DMSO alone was used to establish the maximum (MAX) signal and GDC-0032 at a final concentration of 1 μM was used as a reference compound for the minimum (MIN) signal. After 3 hours treatment, the medium was removed, and the cells lysed in 10 μL of 1× SureFire Lysis buffer with shaking for 10 minutes at room temperature. The Acceptor Mix (Reaction Buffer 1+Reaction Buffer 2+Activation Buffer+SureFire Ultra Acceptor Beads) was prepared by diluting Activation buffer 25-fold in combined Reaction Buffer 1 and Reaction Buffer 2. The Acceptor beads were diluted 50-fold in the combined Reaction Buffers. Five μL of Acceptor Mix was added to each well, the plate was sealed and covered with foil and incubated for 1 hour at room temperature. The Donor Mix (dilution buffer+SureFire Ultra Donor Beads) was prepared by diluting Donor Beads 50-fold in dilution buffer. Five μL of the Donor Mix was added to each well and the plate sealed and covered with foil and incubated for 1 hour at room temperature in the dark. The plates were read on a Neo2 plate reader instrument from Biotek using standard AlphaLisa settings. Compounds were tested in duplicate and the average % inhibition at each compound concentration was used to generate a single dose response curve. The data were processed using the Genedata-Screener tool. Relative IC50 values were determined using luminescence units by calculating percent inhibition with respect to the in-plate “MIN” (GDC-0032 reference control) and “MAX” (DMSO) controls. The data was analyzed using a 4-parameter nonlinear logistic equation (four-parameter logistic concentration-response curve): Y=bottom+[(top−bottom)/1+(X/IC50)slope] where Y=% inhibition, X=concentration of inhibitor, bottom=minimum value of y attained by curve-fit, top=maximum value of y attained by curve-fit and slope=steepness of curve at the IC50. % Inhibition=[(signal at X−median Min)/(median Max−median Min)]×100 IC50: concentration of compound that reduces a given response (ligand binding, enzyme response) by 50%. Relative IC50: concentration giving half the compound's maximum response.
For IC50 values shown in Table B, “A” means IC50<50 nM; “B” means IC50 ranging between 50 nM and 100 nM; “C” means IC50 ranging between 100 nM and 500 nM; “D” means IC50>500 nM.

[3] = molecular target: T2, human full length PIK3KA Wild-type (p110α/p85α complex) (Homo sapiens, UniProt P42336); assay: PI3K-alpha kinase (PIK3CA) biochemical activity, wild-type, ADP-Glo; details: PI3K-α (PIK3CA) biochemical, Soy PI lipid substrate
T2 construct: Recombinant, catalytically active human full length PIK3KA Wild-type and H1047R mutant were purchased as 1:1 complex; 6xHis (N); purchased EMD Millipore Sigma 14-602M
Summary of the method: as §1

SMILES	IC50 [1] [nM]	IC50 [2] [nM]	IC50 [3] [nM]
Cc1cc([C@@H](C)Nc2ccccc2C(=O)O)c2oc(-c3ccccc3C)cc(=O)c2c1 [Example 14, 2-[[(1R)-1-[6-Methyl-2-(o-tolyl)-4-oxo-chromen-8-yl]ethyl]amino]benzoic acid]	< 500	< 50	> 10000
Cc1cc([C@@H](C)Nc2ccccc2C(=O)O)c2oc(-c3ccccc3C#N)cc(=O)c2c1 [Example 15, 2-[[(1R)-1-[2-(2-Cyanophenyl)-6-methyl-4-oxo-chromen-8-yl]ethyl]amino]benzoic acid]	< 500	< 50	5000 to 10000
Cc1cc([C@@H](C)Nc2ccccc2C(=O)O)c2oc(-c3ccccc3)c(C)c(=O)c2c1 [Example 21, 2-[[(1R)-1-(3,6-Dimethyl-4-oxo-2-phenyl-chromen-8-yl)ethyl]amino]benzoic acid]	< 500	< 50	1000 to 5000
Cc1cc([C@@H](C)Nc2ccccc2C(=O)O)c2oc(-c3ccc(C(C)(C)C#N)cc3)cc(=O)c2c1 [Example 25]	< 500	50 to 100	1000 to 5000
Cc1cc([C@@H](C)Nc2ccc(C(F)(F)F)nc2C(=O)O)c2oc(-c3ccccc3)c(C)c(=O)c2c1 [Example 26, 3-[[(1R)-1-(3,6-Dimethyl-4-oxo-2-phenyl-chromen-8-yl)ethyl]amino]-6-(trifluoromethyl)-pyridine-2-carboxylic acid]	< 500	50 to 100	500 to 1000
Cc1cc([C@@H](C)Nc2ccccc2C(=O)O)c2oc(-c3cccc(F)c3)c(C)c(=O)c2c1 [Example 28, 2-[[(1R)-1-[2-(3-Fluorophenyl)-3,6-dimethyl-4-oxo-chromen-8-yl]ethyl]amino]benzoic acid]	< 500	< 50	1000 to 5000
Cc1cc([C@@H](C)Nc2ccccc2C(=O)O)c2oc(-c3ccc(F)cc3)c(C)c(=O)c2c1 [Example 29, 2-[[(1R)-1-[2-(4-Fluorophenyl)-3,6-dimethyl-4-oxo-chromen-8-yl]ethyl]amino]benzoic acid]	< 500	< 50	500 to 1000
Cc1cc([C@@H](C)Nc2ccccc2C(=O)O)c2oc(-c3cccc(C#N)c3)c(C)c(=O)c2c1 [Example 30, 2-[[(1R)-1-[2-(3-Cyanophenyl)-3,6-dimethyl-4-oxo-chromen-8-yl]ethyl]amino]benzoic acid]	< 500	< 50	500 to 1000
Cc1cc([C@@H](C)Nc2ccccc2C(=O)O)c2oc(-c3ccc(C#N)cc3)c(C)c(=O)c2c1 [Example 31, 2-[[(1R)-1-[2-(4-Cyanophenyl)-3,6-dimethyl-4-oxo-chromen-8-yl]ethyl]amino]benzoic acid]	< 500	< 50	1000 to 5000
Cc1cc([C@@H](C)Nc2ccccc2C(=O)O)c2oc(-c3ccc(-c4ncco4)cc3)cc(=O)c2c1 [Example 32, 2-[[(1R)-1-[6-Methyl-2-(4-oxazol-2-ylphenyl)-4-oxo-chromen-8-yl]ethyl]amino]benzoic acid]	< 500	< 50	5000 to 10000
Cc1cc([C@@H](C)Nc2ccc(C(F)(F)F)cc2C(=O)O)c2oc(-c3ccccc3)cc(=O)c2c1 [Example 33, 2-[[(1R)-1-(6-Methyl-4-oxo-2-phenyl-chromen-8-yl)ethyl]amino]-5-(trifluoromethyl)benzoic acid]	< 500	100 to 500	5000 to 10000
Cc1cc([C@@H](C)Nc2ccc(Br)nc2C(=O)O)c2oc(-c3ccccc3)c(C)c(=O)c2c1 [Example 35, 6-Bromo-3-[[(1R)-1-(3,6-dimethyl-4-oxo-2-phenyl-chromen-8-yl)ethyl]amino]-pyridine-2-carboxylic acid]	< 500	< 50	1000 to 5000
Cc1cc([C@@H](C)Nc2cccnc2C(=O)O)c2oc(-c3ccccc3)c(C)c(=O)c2c1 [Example 36, 3-[[(1R)-1-(3,6-Dimethyl-4-oxo-2-phenyl-chromen-8-yl)ethyl]amino]-pyridine-2-carboxylic acid]	500 to 1000	50 to 100	5000 to 10000
Cc1cc([C@@H](C)Nc2ccc(C(F)(F)F)cc2C(=O)O)c2oc(-c3ccccc3)c(C)c(=O)c2c1 [Example 37, 2-[[(1R)-1-(3,6-Dimethyl-4-oxo-2-phenyl-chromen-8-yl)ethyl]amino]-5-(trifluoromethyl)benzoic acid]	500 to 1000	100 to 500	1000 to 5000
Cc1cc([C@@H](C)Nc2ccc(F)c(F)c2C(=O)O)c2oc(-c3ccccc3)c(C)c(=O)c2c1 [Example 38, 6-[[(1R)-1-(3,6-Dimethyl-4-oxo-2-phenyl-chromen-8-yl)ethyl]amino]-2,3-difluoro-benzoic acid]	< 500	< 50	< 500
Cc1cc([C@@H](C)Nc2ccc(C)nc2C(=O)O)c2oc(-c3ccccc3)c(C)c(=O)c2c1 [Example 39, 3-[[(1R)-1-(3,6-Dimethyl-4-oxo-2-phenyl-chromen-8-yl)ethyl]amino]-6-methyl-pyridine-2-carboxylic acid]	< 500	< 50	1000 to 5000
Cc1cc([C@@H](C)Nc2ccc(C3CC3)nc2C(=O)O)c2oc(-c3ccccc3)c(C)c(=O)c2c1 [Example 40, 6-Cyclopropyl-3-[[(1R)-1-(3,6-dimethyl-4-oxo-2-phenyl-chromen-8-yl)ethyl]amino]-pyridine-2-carboxylic acid]	< 500	50 to 100	5000 to 10000
Cc1cc([C@@H](C)Nc2ccc(Cl)cc2C(=O)O)c2oc(-c3ccccc3)c(C)c(=O)c2c1 [Example 41, 5-Chloro-2-[[(1R)-1-(3,6-dimethyl-4-oxo-2-phenyl-chromen-8-yl)ethyl]amino]benzoic acid]	< 500	< 50	1000 to 5000
Cc1cc([C@@H](C)Nc2ccc(Cl)c(F)c2C(=O)O)c2oc(-c3ccccc3)c(C)c(=O)c2c1 [Example 42, 3-Chloro-6-[[(1R)-1-(3,6-dimethyl-4-oxo-2-phenyl-chromen-8-yl)ethyl]amino]-2-fluoro-benzoic acid]	< 500	< 50	500 to 1000
Cc1cc([C@@H](C)Nc2ccc(C)c(F)c2C(=O)O)c2oc(-c3ccccc3)c(C)c(=O)c2c1 [Example 43, 6-[[(1R)-1-(3,6-Dimethyl-4-oxo-2-phenyl-chromen-8-yl)ethyl]amino]-2-fluoro-3-methyl-benzoic acid]	< 500	50 to 100	1000 to 5000
Cc1cc([C@@H](C)Nc2ccccc2C(=O)O)c2oc(-c3ccccc3F)c(C)c(=O)c2c1 [Example 44, 2-[[(1R)-1-[2-(2-Fluorophenyl)-3,6-dimethyl-4-oxo-chromen-8-yl]ethyl]amino]benzoic acid]	< 500	< 50	1000 to 5000
